In US11229205B2, “Herbicidally active pyridyl-/pyrimidyl-pyrazine derivatives” (Syngenta Participations AG, priority 2017, dated 2022):

Legend:
Format in all cases: in vivo
[1] = tested on: Abutilon theophrasti (ABUTH); experiment: Pre-emergence herbicidal activity (B1); settings: Test 1a; pre-emergence application; rate 1000 g/ha; evaluated after 13 days; score 0-5
Protocol: (§1) Seeds of a variety of test species were sown in standard soil in pots: Triticum aestivium (TRZAW), Avena fatua (AVEFA), Alopecurus myosuroides (ALOMY), Echinochloa crus-galli (ECHCG), Lolium perenne (LOLPE), Zea Mays (ZEAMX), Abutilon theophrasti (ABUTH), Amaranthus retroflexus (AMARE) and Setaria faberi (SETFA). […] The test plants were then grown in a glasshouse under controlled conditions (at 24/16° C., day/night; 14 hours light; 65% humidity) and watered twice daily. After 13 days, the test was evaluated (5=total damage to plant; 0=no damage to plant).

[2] = tested on: Amaranthus retroflexus (AMARE); experiment: Pre-emergence herbicidal activity (B1); settings: Test 1a; pre-emergence application; rate 1000 g/ha; evaluated after 13 days; score 0-5
Protocol: as §1

[3] = tested on: Echinochloa crus-galli (ECHCG); experiment: Pre-emergence herbicidal activity (B1); settings: Test 1a; pre-emergence application; rate 1000 g/ha; evaluated after 13 days; score 0-5
Protocol: as §1

Lolium perenne (LOLPE) [4] = experiment: Pre-emergence herbicidal activity (B1); settings: Test 1a; pre-emergence application; rate 1000 g/ha; evaluated after 13 days; score 0-5
Protocol: as §1

Setaria faberi (SETFA) [5] = experiment: Pre-emergence herbicidal activity (B1); settings: Test 1a; pre-emergence application; rate 1000 g/ha; evaluated after 13 days; score 0-5
Protocol: as §1

Zea Mays (ZEAMX) [6] = experiment: Pre-emergence herbicidal activity (B1); settings: Test 1a; pre-emergence application; rate 1000 g/ha; evaluated after 13 days; score 0-5
Protocol: as §1

[7] = tested on: Abutilon theophrasti (ABUTH); experiment: Post-emergence herbicidal activity (B2); settings: Test B2a; post-emergence application; rate 1000 g/ha; evaluated after 13 days; score 0-5
Protocol: as §1

[8] = tested on: Amaranthus retroflexus (AMARE); experiment: Post-emergence herbicidal activity (B2); settings: Test B2a; post-emergence application; rate 1000 g/ha; evaluated after 13 days; score 0-5
Protocol: as §1

[9] = tested on: Echinochloa crus-galli (ECHCG); experiment: Post-emergence herbicidal activity (B2); settings: Test B2a; post-emergence application; rate 1000 g/ha; evaluated after 13 days; score 0-5
Protocol: as §1

Lolium perenne (LOLPE) [10] = experiment: Post-emergence herbicidal activity (B2); settings: Test B2a; post-emergence application; rate 1000 g/ha; evaluated after 13 days; score 0-5
Protocol: as §1

Setaria faberi (SETFA) [11] = experiment: Post-emergence herbicidal activity (B2); settings: Test B2a; post-emergence application; rate 1000 g/ha; evaluated after 13 days; score 0-5
Protocol: as §1

Zea Mays (ZEAMX) [12] = experiment: Post-emergence herbicidal activity (B2); settings: Test B2a; post-emergence application; rate 1000 g/ha; evaluated after 13 days; score 0-5
Protocol: as §1

Cc1nc(-c2cncnc2)cnc1N [Compound G1]
2: damage to plant, SETFA (Setaria faberi (SETFA) [5]) | damage to plant, AMARE [8] | damage to plant, SETFA (Setaria faberi (SETFA) [11]) | damage to plant, ZEAMX (Zea Mays (ZEAMX) [12])
1: damage to plant, ECHCG [3] | damage to plant, ZEAMX (Zea Mays (ZEAMX) [6]) | damage to plant, ABUTH [7] | damage to plant, ECHCG [9] | damage to plant, LOLPE (Lolium perenne (LOLPE) [10])
0: damage to plant, ABUTH [1] | damage to plant, AMARE [2] | damage to plant, LOLPE (Lolium perenne (LOLPE) [4])
